Patent US8592581B2, “Trisubstituted purine derivatives” (Cyclacel Limited, priority 2007, dated 2013)
Like-named read-outs stand apart in the source and are kept apart here.

Assays:
[1] = biological target: CDK2/cyclin A (Homo sapiens (Human), UniProt P24941); assay: In-vitro recombinant kinase assay CDK2/cyclin A; type: biochemical
Method: (§1) To evaluate the in-vitro kinase potency of the compounds, they were screened against CDK 2 and CDK9. Kinase assays were performed in 96-well plates using recombinant CDK/cyclins generated at Cyclacel. Ltd Dundee, UK. CDK2 and CDK9 assays were performed in a total volume of 25 μl in assay buffer (25 mM b-glycerophosphate, 20 mM MOPS, 5 mM EGTA, 1 mM DTT and 1 mM NaVO3, pH 7.4), into which were added 2-4 μg of active enzyme with appropriate substrates (purified histone H1 for CDK2/cyclin E, and CDK2/cyclin A, biotinyl-Ahx-(YSPTSPS)4 for CDK9/cyclin T1). […] CDK2 reactions were stopped by addition of 25 μl of 75 mM phosphoric acid, followed by filtration through P81 filterplates (Whatman Polyfiltronics, Kent, UK). For CDK9, the reaction was stopped by addition of 25 μl of 75 mM phosphoric acid, then 5 μl of 10 mg/ml avidin was added to each well and further incubated for 2 min followed by filtration as per CDK2 assay. After washing 3 times with 75 mM orthophosphoric acid, plates were dried, scintillant added and incorporated radioactivity measured in a scintillation counter (TopCount, Packard Instruments, Pangbourne, Berks, UK). Compounds for kinase assay were made up as 10 mM stocks in DMSO and diluted into 10% DMSO in assay buffer.
as §1

[2] = biological target: CDK2/cyclin E (Homo sapiens (Human), UniProt P24941); assay: In-vitro recombinant kinase assay CDK2/cyclin E; type: biochemical
Method: as §1, §1

[3] = test system: H460 non-small cell lung cancer (NSCLC) cell line; assay: Alamar blue cytotoxicity assay in H460 NSCLC tumour cell line; type: cell-based; settings: for Fold increase in potency: H460 cellular IC50 compared with seliciclib; for IC50: H460 cells, 72 hours, average of three independent experiments
Method: In order to determine the cellular potency of the compounds, the cytotoxicity of each compound was determined against the H460 non-small cell lung cancer (NSCLC) cell line. Standard cytotoxicity methods were performed as follows: H460 cells were seeded in 96-well plates appropriately for their doubling time (3000 cells per well) in RPMI media containing 10% FCS and incubated overnight at 37° C., 5% CO2. The media was removed and 100 μl fresh media containing increasing concentrations of appropriate compound was added and the cells incubated for 72 hours at 37° C., 5% CO2. A 10% stock of alamar blue (Roche, Lewes, United Kingdom) was prepared in medium and 100 μl added to the cells which were incubated for 2 hours.

[4] = biological target: CDK9/cyclin T1 (Homo sapiens (Human), UniProt P50750); assay: In-vitro recombinant kinase assay CDK9/cyclin T1; type: biochemical; settings: Table 2; average of duplicate points
Method: as §1, §1

[5] = biological target: CDK1B (Homo sapiens (Human), UniProt P06493); assay: In-vitro kinase assay screen CDK1B (Table 4); type: biochemical
[6] = Table 2, average of duplicate points, read-out: CDK2/Cyclin E Average IC50
[7] = Table 2, average of duplicate points, read-out: CDK2/Cyclin A Average IC50
[8] = Table 4, Run 1, read-out: CDK2A Run 1
[9] = Table 4, Run 2, read-out: CDK2A Run 2
[10] = Table 4, Run 1, read-out: CDK2E Run 1
[11] = Table 4, Run 2, read-out: CDK2E Run 2
[12] = Table 4, mean of two runs, read-out: CDK2E Mean
[13] = Table 4, Run 1, read-out: CDK1B Run 1
[14] = Table 4, Run 2, read-out: CDK1B Run 2
[15] = Table 4, mean of two runs, read-out: CDK1B Mean

Chain of CDK9/cyclin T1 (P50750 whole entry, species assumed): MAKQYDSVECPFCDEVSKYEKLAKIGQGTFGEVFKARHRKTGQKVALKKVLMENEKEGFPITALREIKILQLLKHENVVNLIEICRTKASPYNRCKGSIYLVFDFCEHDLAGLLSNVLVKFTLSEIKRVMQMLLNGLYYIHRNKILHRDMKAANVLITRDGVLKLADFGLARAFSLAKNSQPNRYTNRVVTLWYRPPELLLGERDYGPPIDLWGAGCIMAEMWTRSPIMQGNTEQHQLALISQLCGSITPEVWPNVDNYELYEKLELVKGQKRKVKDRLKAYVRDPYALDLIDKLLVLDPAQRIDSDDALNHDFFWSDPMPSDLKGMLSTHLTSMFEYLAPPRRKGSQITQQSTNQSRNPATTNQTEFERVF
Chain of CDK9/cyclin T1 (O60563 whole entry partner, species assumed): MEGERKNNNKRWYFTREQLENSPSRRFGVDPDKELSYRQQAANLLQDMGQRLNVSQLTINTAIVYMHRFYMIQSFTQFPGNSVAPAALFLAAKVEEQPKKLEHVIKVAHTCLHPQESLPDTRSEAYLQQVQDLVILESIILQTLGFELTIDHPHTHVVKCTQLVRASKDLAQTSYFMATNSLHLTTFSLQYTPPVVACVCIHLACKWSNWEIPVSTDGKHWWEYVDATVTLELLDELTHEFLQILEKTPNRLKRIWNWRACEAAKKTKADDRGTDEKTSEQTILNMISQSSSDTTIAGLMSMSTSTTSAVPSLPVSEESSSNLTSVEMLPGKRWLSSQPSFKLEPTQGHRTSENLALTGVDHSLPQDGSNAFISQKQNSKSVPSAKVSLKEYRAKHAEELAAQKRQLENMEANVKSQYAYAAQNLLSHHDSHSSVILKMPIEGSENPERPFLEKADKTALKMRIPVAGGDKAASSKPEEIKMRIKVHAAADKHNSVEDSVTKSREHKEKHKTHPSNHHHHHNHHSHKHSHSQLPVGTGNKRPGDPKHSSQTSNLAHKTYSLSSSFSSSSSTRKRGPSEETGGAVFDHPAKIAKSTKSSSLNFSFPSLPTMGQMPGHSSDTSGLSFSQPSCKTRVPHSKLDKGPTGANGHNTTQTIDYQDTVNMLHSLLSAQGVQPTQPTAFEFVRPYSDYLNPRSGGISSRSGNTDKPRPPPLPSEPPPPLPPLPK
Chain of CDK1B (P06493 whole entry): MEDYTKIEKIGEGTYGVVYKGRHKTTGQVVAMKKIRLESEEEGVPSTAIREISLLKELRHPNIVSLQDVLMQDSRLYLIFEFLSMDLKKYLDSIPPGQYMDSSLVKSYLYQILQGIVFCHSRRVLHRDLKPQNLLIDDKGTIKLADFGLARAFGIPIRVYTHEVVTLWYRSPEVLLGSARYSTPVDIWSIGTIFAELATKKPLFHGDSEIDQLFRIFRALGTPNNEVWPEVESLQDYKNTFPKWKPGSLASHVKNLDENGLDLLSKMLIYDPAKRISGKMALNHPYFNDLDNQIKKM
Chain of CDK1B (P14635 whole entry partner): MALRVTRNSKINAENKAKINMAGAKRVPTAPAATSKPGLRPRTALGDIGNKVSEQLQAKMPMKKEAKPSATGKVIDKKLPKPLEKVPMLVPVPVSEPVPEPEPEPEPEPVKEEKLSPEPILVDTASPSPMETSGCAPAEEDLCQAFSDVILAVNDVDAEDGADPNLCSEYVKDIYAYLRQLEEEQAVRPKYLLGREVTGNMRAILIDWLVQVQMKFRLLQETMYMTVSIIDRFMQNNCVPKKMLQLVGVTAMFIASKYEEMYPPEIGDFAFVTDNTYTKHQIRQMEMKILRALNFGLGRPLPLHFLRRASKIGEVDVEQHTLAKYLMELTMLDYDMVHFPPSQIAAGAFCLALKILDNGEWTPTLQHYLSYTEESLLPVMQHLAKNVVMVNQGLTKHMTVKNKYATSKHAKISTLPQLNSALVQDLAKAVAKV

CC[C@H](Nc1nc(NCc2ccc(C)nc2)c2ncn(C(C)C)c2n1)[C@@H](C)O [[2], 2R,3S-3-(9-isopropyl-6-((6-methylpyridin-3-yl)methylamino)-9H-purin-2-ylamino)pentan-2-ol]
IC50 [1]: 3250 nM | IC50 [2, 6]: 520 nM | Fold increase in potency [3]: 0.3 | IC50 ([3]; Homo sapiens, NCI-H460, 72 h): 35000 nM | IC50 [4]: 3630 nM

CC[C@H](Nc1nc(NCc2cccc(Cl)c2)c2ncn(C(C)C)c2n1)[C@@H](C)O [[3], 2R,3S-3-(6-(3-Chlorobenzylamino)-9-isopropyl-9H-purin-2-ylamino)pentan-2-ol]
IC50 [1, 7]: 100 nM | IC50 [2, 6]: 10 nM | Fold increase in potency [3]: 8.0 | IC50 ([3]; Homo sapiens, NCI-H460, 72 h): 1500 nM | IC50 [4]: 60 nM

CC[C@H](Nc1nc(NCc2cccc(F)c2)c2ncn(C(C)C)c2n1)[C@@H](C)O [[4], 2R,3S-3-[6-(3-Fluorobenzylamino)-9-isopropyl-9H-purin-2-ylamino]-pentan-2-ol]
IC50 [1, 7]: 120 nM | IC50 [2, 6]: 20 nM | Fold increase in potency [3]: 8.0 | IC50 ([3]; Homo sapiens, NCI-H460, 72 h): 1500 nM | IC50 [4]: 80 nM

CC[C@H](Nc1nc(NCc2cccnc2)c2ncn(CC3CC3)c2n1)[C@@H](C)O [[5], 2R,3S-3-(9-(Cyclopropylmethyl)-6-(pyridin-3-ylmethylamino)-9H-purin-2-ylamino)pentan-2-ol]
IC50 [2, 6]: 830 nM | Fold increase in potency [3]: 0.3 | IC50 ([3]; Homo sapiens, NCI-H460, 72 h): 34400 nM | IC50 [4]: 7890 nM

CC[C@H](Nc1nc(NC2CC2)c2ncn(C(C)C)c2n1)[C@@H](C)O [[6]]
IC50 [2, 6]: 50 nM | Fold increase in potency [3]: 7.1 | IC50 ([3]; Homo sapiens, NCI-H460, 72 h): 1700 nM | IC50 [4]: 270 nM

CC[C@H](Nc1nc(NCC2CC2)c2ncn(C(C)C)c2n1)[C@@H](C)O [[7], 2R,3S-3-(6-(Cyclopropylmethylamino)-9-isopropyl-9H-purine-2-ylamino)pentan-2-ol]
IC50 [2, 6]: 40 nM | Fold increase in potency [3]: 5.0 | IC50 ([3]; Homo sapiens, NCI-H460, 72 h): 2400 nM | IC50 [4]: 380 nM

CC[C@H](Nc1nc(NC2CCC2)c2ncn(C(C)C)c2n1)[C@@H](C)O [[8], 2R,3S-3-(6-(Cyclobutylamino)-9-isopropyl-9H-purin-2-ylamino)pentan-2-ol]
IC50 [2, 6]: 160 nM | Fold increase in potency [3]: 4.1 | IC50 ([3]; Homo sapiens, NCI-H460, 72 h): 2900 nM | IC50 [4]: 500 nM

CC[C@H](Nc1nc(NCc2ccncc2)c2ncn(C(C)C)c2n1)[C@@H](C)O [[9], 2R,3S-3-(9-Isopropyl-6-(pyridine-4-ylmethylamino)-9H-purin-2-ylamino)pentan-2-ol]
IC50 [2, 6]: 40 nM | Fold increase in potency [3]: 5.2 | IC50 ([3]; Homo sapiens, NCI-H460, 72 h): 2300 nM | IC50 [4]: 610 nM

CC[C@H](Nc1nc(NCc2cc(C)nc(C)c2)c2ncn(C(C)C)c2n1)[C@@H](C)O [[10], 2R,3S-3-(9-Isopropyl-6-(2,6-dimethylpyridine-4-ylmethylamino)-9H-purin-2-ylamino)pentan-2-ol]
IC50 [2, 6]: 50 nM | Fold increase in potency [3]: 5.0 | IC50 ([3]; Homo sapiens, NCI-H460, 72 h): 2400 nM | IC50 [4]: 1040 nM

CC[C@H](Nc1nc(NCc2ccc(C(F)(F)F)nc2)c2ncn(C(C)C)c2n1)[C@@H](C)O [[11], 2R,3S-3-(9-Isopropyl-6-((6-(trifluoromethyl)pyridine-3-yl)methylamino)-9H-purin-2-ylamino)pentan-2-ol]
IC50 [2, 6]: 40 nM | IC50 [3]: 900 nM | Fold increase in potency [3]: 13.3 | IC50 ([3]; Homo sapiens, NCI-H460, 72 h): < 1000 nM | IC50 [4]: 250 nM

CC[C@H](Nc1nc(NCc2cccc(C)n2)c2ncn(C(C)C)c2n1)[C@@H](C)O [[12], 2R,3S-3-(9-Isopropyl-6-((6-methylpyridin-2-yl)methylamino)-9H-purin-2-ylamino)pentan-2-ol]
IC50 [2, 6]: 50 nM | Fold increase in potency [3]: 1.7 | IC50 ([3]; Homo sapiens, NCI-H460, 72 h): 7200 nM | IC50 [4]: 2040 nM

CC[C@H](Nc1nc(NCc2ncccc2C)c2ncn(C(C)C)c2n1)[C@@H](C)O [[13], 2R,3S-3-(9-Isopropyl-6-((3-methylpyridin-2-yl)methylamino)-9H-purin-2-ylamino)pentan-2-ol]
IC50 [2, 6]: 770 nM | Fold increase in potency [3]: 0.6 | IC50 ([3]; Homo sapiens, NCI-H460, 72 h): 19400 nM | IC50 [4]: 5840 nM

CC(C)n1cnc2c(NCc3cccnc3)nc(NC[C@@H](C)O)nc21 [[14], (R)-1-(9-Isopropyl-6-(pyridin-3-ylmethylamino)-9H-purin-2-ylamino)propan-2-ol]
IC50 [2, 6]: 290 nM | Fold increase in potency [3]: 0.7 | IC50 ([3]; Homo sapiens, NCI-H460, 72 h): 16700 nM | IC50 [4]: 6530 nM

CC(C)n1cnc2c(NCc3cccnc3)nc(NCC(O)C(F)(F)F)nc21 (stereo not drawn) [[15], 1,1,1-Trifluoro-3-(9-isopropyl-6-(pyridin-3-ylmethylamino)-9H-purin-2-ylamino)propan-2-ol]
IC50 [2, 6]: 570 nM | Fold increase in potency [3]: 0.6 | IC50 ([3]; Homo sapiens, NCI-H460, 72 h): 20300 nM | IC50 [4]: 7400 nM

CCC(Nc1nc(NCc2cccnc2)c2ncn(C(C)C)c2n1)C(O)C(F)(F)F (stereo not drawn) [[16], 1,1,1-Trifluoro-3-(9-isopropyl-6-(pyridin-3-ylmethylamino)-9H-purin-2-ylamino)pentan-2-ol]
IC50 [2, 6]: 90 nM | Fold increase in potency [3]: 2.9 | IC50 ([3]; Homo sapiens, NCI-H460, 72 h): 4100 nM | IC50 [4]: 2140 nM

CCC(Nc1nc(NCc2ccc(C(F)(F)F)nc2)c2ncn(C(C)C)c2n1)C(O)C(F)(F)F (stereo not drawn) [[17], 1,1,1-Trifluoro-3-(9-isopropyl-6-((6-(trifluoromethyl)pyridin-3-yl)methylamino)-9H-2-ylamino)pentan-2-ol]
IC50 [1, 8]: 305 nM | IC50 [1, 9]: 431 nM | IC50 ([1]; Table 4, mean of two runs, read-out: CDK2A Mean): 368 nM | IC50 [2, 10]: 318 nM | IC50 [2, 11]: 307 nM | IC50 [2, 12]: 313 nM | IC50 [5, 13]: 6120 nM | IC50 [5, 14]: 11200 nM | IC50 [5, 15]: 8680 nM

CC(C)n1cnc2c(NCc3cccnc3)nc(NCC(O)(C(F)(F)F)C(F)(F)F)nc21 [[18], 1,1,1,3,3,3-Hexafluoro-2-((9-isopropyl-6-(pyridine-3-ylmethylamino)-9H-purin-2-ylamino)methyl)propan-2-ol]
IC50 [1, 8]: 704 nM | IC50 [1, 9]: 1190 nM | IC50 [2, 10]: 336 nM | IC50 [2, 11]: 279 nM | IC50 [2, 12]: 308 nM | IC50 [5, 13]: 5880 nM | IC50 [5, 14]: 6720 nM | IC50 [5, 15]: 6300 nM
